How the values were obtained:
POAAN (annual bluegrass) = assay: Pre-plant incorporated (PPI) herbicidal activity, cool season; format: in vivo, Poa annua; settings: weed, PPI application
Protocol: (§1) In another set of tests, the pre-plant incorporated (PPI) activity of compounds of this invention was evaluated on the same species as for the pre-emergence tests described above. In the PPI tests the following procedure, designed to simulate PPI application, was used.
(§2) A pre-prepared topsoil mixture (described above) was placed in a pot and compacted to a depth of 1.0 to 1.25 cm from the top of the pot. Seeds of each of several monocotyledonous and dicotyledonous annual plant species were placed on top of the soil. A sufficient quantity of soil to cover the seeds and level fill the pot was weighed into an open container. A known amount of the test compound was dissolved or suspended in an organic solvent and applied by spraying to this cover soil. The cover soil was thoroughly mixed to distribute the test compound throughout the cover soil, and was then applied as a cover layer over the seeds. Untreated soil was used as a cover layer for control pots. After treatment the plants were placed in a greenhouse where they received 0.64 cm of overhead irrigation. All subsequent watering consisted of a light overhead mist and/or subirrigation as needed for germination and growth. Tables 9 and 10 below relate to warm season plant species which were placed after pre-emergence treatment in a greenhouse with a 30/21° C. day/night temperature regime. Tables 11 and 12 below relates to cool season plant species placed after pre-emergence treatment in a greenhouse or growth chamber with an 18/13° C. day/night temperature regime. Only the compounds of Examples 1, 6, 8, 11, 13 and 15-20 were included in PPI tests.
(§3) Approximately 14 days after planting and treating, the plants were observed and herbicidal efficacy recorded as percent inhibition by comparison with untreated plants.

oilseed rape (BRSNS) = assay: Selectivity test, PPI, cool season crop; format: in vivo, Brassica napus; settings: PPI application
Protocol: as §2, §3
Additional pre-emergence and PPI tests were conducted by the procedures described above, on warm and cool season weed species in the presence of crop species, to assess herbicidal selectivity. Crop species included in warm season tests were corn (Zea mays, ZEAMX), rice (Oryza sativa, ORYSA) and soybean (Glycine max, GLYMX). Crop species included in cool season tests were wheat (Triticum aestivum, TRZAW), barley (Hordeunm vulgare, HORVX) and oilseed rape (Brassica napus, BRSNS).
Tables 15 and 16 relate to pre-emergence and PPI tests respectively on warm season species. Table 17 relates to pre-emergence tests on cool season species.

DATST (jimsonweed) = assay: Pre-plant incorporated (PPI) herbicidal activity, warm season; format: in vivo, Datura stramonium; settings: PPI application
Protocol: as §1, §2, §3

SORVU (shattercane) [1] = assay: as above; format: in vivo, Sorghum vulgare; settings: PPI application
Protocol: as §1, §2, §3

SORVU (shattercane) [2] = assay: Pre-emergence herbicidal activity, warm season; format: in vivo, Sorghum vulgare; settings: GR80 = lowest tested rate (300, 100, 30, 10 g/ha) with 80% or greater inhibition; approx. 14 days after treating; 30/21° C.
Method in brief: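 Activity is expressed as the rate giving 80% inhibition, with 300, 100, 30 and 10 g/ha typically tested. An asterisk marks activity short of 80% at the top rate. Warm-season grasses were held at 30/21 °C; cool-season blackgrass and wild buckwheat at 18/13 °C; scoring at about 14 days.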

[3] = system: CHEAL (common lambsquarters); assay: Pre-emergence herbicidal activity, warm season; format: in vivo, Chenopodium album; settings: GR80 = lowest tested rate (300, 100, 30, 10 g/ha) with 80% or greater inhibition; approx. 14 days after treating; 30/21° C.
Method in brief: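 Seeds sown in sterilised fertilised topsoil received surface-applied compound in 50:50 acetone/water, typically at 300, 100, 30 and 10 g/ha, then greenhouse-grown at 30/21° C (warm-season species) or 18/13° C (cool-season species). Percent inhibition versus untreated plants was scored at about 14 days, giving GR80; an asterisk marks activity short of 80% at the top rate.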

DIGSA (large crabgrass) = assay: Pre-plant incorporated (PPI) herbicidal activity, warm season; format: in vivo, Digitaria sanguinalis; settings: PPI application
Protocol: as §1, §2, §3

ABUTH (velvetleaf) = assay: as above; format: in vivo, Abutilon theophrasti; settings: PPI application
Protocol: as §1, §2, §3

STEME (common chickweed) = assay: Pre-plant incorporated (PPI) herbicidal activity, cool season; format: in vivo, Stellaria media; settings: weed, PPI application
Protocol: as §1, §2, §3

[4] = system: AEGCY (jointed goatgrass); assay: as above; format: in vivo, Aegilops cylindrica; settings: weed, PPI application
Protocol: as §1, §2, §3

CCN(CC)C(=O)n1cnc(S(=O)(=O)C(F)(F)F)n1 [Example 2]
Percent inhibition POAAN (POAAN (annual bluegrass); 30 g/ha): 80% | Percent inhibition POAAN (POAAN (annual bluegrass); 100 g/ha): 100% | Percent inhibition POAAN (POAAN (annual bluegrass); 300 g/ha): 100% | Percent inhibition POAAN (POAAN (annual bluegrass); 900 g/ha): 100% | Percent inhibition BRSNS (oilseed rape (BRSNS); 30 g/ha): 0% | Percent inhibition BRSNS (oilseed rape (BRSNS); 100 g/ha): 80% | Percent inhibition BRSNS (oilseed rape (BRSNS); 300 g/ha): 100% | Percent inhibition BRSNS (oilseed rape (BRSNS); 900 g/ha): 100% | Percent inhibition DATST (DATST (jimsonweed); 30 g/ha): 0% | Percent inhibition DATST (DATST (jimsonweed); 100 g/ha): 10% | Percent inhibition DATST (DATST (jimsonweed); 300 g/ha): 80% | Percent inhibition DATST (DATST (jimsonweed); 900 g/ha): 70% | Percent inhibition SORVU (SORVU (shattercane) [1]; 30 g/ha): 50% | Percent inhibition SORVU (SORVU (shattercane) [1]; 100 g/ha): 100% | Percent inhibition SORVU (SORVU (shattercane) [1]; 300 g/ha): 95% | Percent inhibition SORVU (SORVU (shattercane) [1]; 900 g/ha): 100% | Pre-emergence activity (GR80) SORVU (SORVU (shattercane) [2]): 300 g/ha | Pre-emergence activity (GR80) CHEAL [3]: 100 g/ha | Percent inhibition DIGSA (DIGSA (large crabgrass); 30 g/ha): 85% | Percent inhibition DIGSA (DIGSA (large crabgrass); 100 g/ha): 99% | Percent inhibition DIGSA (DIGSA (large crabgrass); 300 g/ha): 90% | Percent inhibition DIGSA (DIGSA (large crabgrass); 900 g/ha): 100% | Percent inhibition ABUTH (ABUTH (velvetleaf); 30 g/ha): 0% | Percent inhibition ABUTH (ABUTH (velvetleaf); 100 g/ha): 0% | Percent inhibition ABUTH (ABUTH (velvetleaf); 300 g/ha): 20% | Percent inhibition ABUTH (ABUTH (velvetleaf); 900 g/ha): 75% | Percent inhibition STEME (STEME (common chickweed); 30 g/ha): 60% | Percent inhibition STEME (STEME (common chickweed); 100 g/ha): 90% | Percent inhibition STEME (STEME (common chickweed); 300 g/ha): 80% | Percent inhibition STEME (STEME (common chickweed); 900 g/ha): 95% | Percent inhibition AEGCY ([4]; 30 g/ha): 0% | Percent inhibition AEGCY ([4]; 100 g/ha): 20% | Percent inhibition AEGCY ([4]; 300 g/ha): 20% | Percent inhibition AEGCY ([4]; 900 g/ha): 70%

CCN(CC)C(=O)n1cnc(S(=O)(=O)C(F)(F)C(F)(F)SC)n1 [Example 14]
Pre-emergence activity (GR80) SORVU (SORVU (shattercane) [2]): * (activity observed, at least at highest rate, but <80% inhibition) | Pre-emergence activity (GR80) CHEAL [3]: 300 g/ha

— patent US6461997B1, “Triazole sulfones having herbicidal activity” (Monsanto Technology LLC, priority 1999, dated 2002)
